Measured values from patent US20110082161A1, “POWDERS FOR RECONSTITUTION” (priority 2008, published 2011).

How the values were obtained:
[1] = background statement; cited from earlier work
[2] = Safety and tolerability in Phase I single-dose trial; assay type: in vivo, human healthy subjects; settings: single doses of 200 mg TMC125, healthy subjects
From the text: No clinically relevant safety issues were identified with respect to the parameters studied, including AEs, laboratory and cardiovascular safety, and physical and skin examinations.

Cc1cc(C#N)cc(C)c1Oc1nc(Nc2ccc(C#N)cc2)nc(N)c1Br [TMC125, 4-[[6-amino-5-bromo-2-[(4-cyanophenyl)amino]-4-pyrimidinyl]oxy]-3,5-dimethylbenzonitrile]
solubility in aqueous media [1]: very insoluble | safety and tolerability (AEs, laboratory, cardiovascular, physical and skin examinations) [2]: generally safe and well tolerated
